One may read the EC50 as the concentration needed to bring the measured effect to its halfway point. As usually defined, the EC90 is the concentration at which the effect reaches the 90% level.

Structures are written as SMILES. Where “and” joins values, the source holds several entries; their conditions need not be identical. Identical values can stand only once.

Our source for the EC50 and EC90 values is ChEMBL document CHEMBL5661943, “ASAP - In vitro antiviral effect” (2024).

The test system of one assay is Zika virus. The assay can be described thus: Functional CPE-based assay to measure dose dependent changes in antiviral-drug inhibitory efficacy against Zika virus MR766 in Vero E6 miRFP670 cells (cotreated with P-gp inhibitor, CP100356). Cells are treated with antiviral candidates that are serially diluted. EC50 is reported via analysis of MTS assay as a readout of CPE. The assay has been performed by KU Leuven. Type of assay: organism-based, Chlorocebus sabaeus, Vero C1008. The settings on record: for EC90: P-gp concentration 500 nM, P-gp inhibitor CP100356. For orientation: Formazan colour is commonly taken as a measure of viable cells.

Another assay deals with dengue virus type 2. The assay can be described thus: Functional assay to measure dose dependent changes in antiviral-drug inhibitory efficacy against Dengue virus type 2 New Guinea C in Vero E6 miRFP670 cells (cotreated with P-gp inhibitor, CP100356). Cells are treated with antiviral candidates that are serially diluted, following infection, cells are fixed. EC50 is reported via analysis of fluorescence intensity using high-content imager. The …. The class given is organism-based, Chlorocebus sabaeus, Vero C1008. The settings on record: for EC90: P-gp concentration 500 nM, P-gp inhibitor CP100356.

For the compound `COc1ccccc1-c1nc2c(C(=O)Nc3ccc4c(c3)CNC4)cc(F)cc2[nH]1`, the EC50 in the assay on Zika virus (Zika virus, Vero C1008) was over 50 µM; in the assay with dengue virus type 2 (Dengue virus, Vero C1008), over 12.5 µM. Further, the EC90 in the assay with Zika virus (Zika virus, Vero C1008, Baseline response 0 %, Hill slope 1.211, Maximum measured 45.367 %, Maximum response 100 %, Minimum measured -3.491 %, R squared 0.953) is over 50 µM; with dengue virus type 2 (Dengue virus, Vero C1008, Baseline response 0 %, Hill slope -1.284, Maximum measured 263.72 %, Maximum response 267.598 %, Minimum measured 165.032 %, R squared 0.972) it was over 12.5 µM.
Regarding `O=C(Nc1ccc2c(c1)CNC2)c1cccc2nc(O)ccc12`, the EC50 is over 50 µM in the assay with Zika virus (Zika virus, Vero C1008) and over 50 µM in the assay on dengue virus type 2 (Dengue virus, Vero C1008). The concentration for an effect of 90% (EC90) was over 50 µM in the assay on Zika virus (Zika virus, Vero C1008, Maximum measured -4.519 %, Minimum measured -18.451 %) and over 50 µM with dengue virus type 2 (Dengue virus, Vero C1008, Maximum measured 128.112 %, Minimum measured 90.404 %).
As for `Cc1nc2c(C(=O)Nc3ccc4c(c3)CNC4)cc(Cl)cc2[nH]1`, the EC50 with Zika virus (Zika virus, Vero C1008) was over 50 µM; in the assay with dengue virus type 2 (Dengue virus, Vero C1008), over 6.25 µM. For the same compound, the EC90 was over 50 µM with Zika virus (Zika virus, Vero C1008, Maximum measured 8.786 %, Minimum measured -9.149 %) and over 6.25 µM with dengue virus type 2 (Dengue virus, Vero C1008, Baseline response 0 %, Hill slope -1.031, Maximum measured 89.345 %, Maximum response 100 %, Minimum measured 48.357 %, R squared 0.44).
Turning to `O=C(NCc1cccnc1)[C@H](Nc1ccc2c(c1)CNC2)c1cc(Cl)cc2[nH]ncc12`, the EC50 was over 50 µM in the assay on Zika virus (Zika virus, Vero C1008) and over 50 µM in the assay on dengue virus type 2 (Dengue virus, Vero C1008). The EC90 in the assay on Zika virus (Zika virus, Vero C1008, Maximum measured -0.377 %, Minimum measured -17.936 %) was over 50 µM; with dengue virus type 2 (Dengue virus, Vero C1008, Maximum measured 132.553 %, Minimum measured 89.084 %), over 50 µM.
In the case of `O=C(Nc1cc2c(c(-c3ccnnc3)c1)CNC2)c1cc(Cl)cc2[nH]ncc12`, the EC50 in the assay on Zika virus (Zika virus, Vero C1008) is over 50 µM; with dengue virus type 2 (Dengue virus, Vero C1008) it was over 6.25 µM. Besides, the EC90 was over 50 µM in the assay on Zika virus (Zika virus, Vero C1008, Baseline response 0 %, Hill slope 0.648, Maximum measured 22.176 %, Maximum response 100 %, Minimum measured 1.861 %, R squared 0.877) and over 6.25 µM in the assay with dengue virus type 2 (Dengue virus, Vero C1008, Baseline response 0 %, Hill slope 3.411, Maximum measured 174.98 %, Maximum response 100 %, Minimum measured 62.735 %, R squared 0.059).
Regarding `Cc1ccc(-c2nc3c(C(=O)Nc4ccc5c(c4)CNC5)cc(F)cc3[nH]2)cc1`, the EC50 with Zika virus (Zika virus, Vero C1008) is over 50 µM; with dengue virus type 2 (Dengue virus, Vero C1008), over 50 µM. For the same compound, the EC90 is over 50 µM in the assay with Zika virus (Zika virus, Vero C1008, Baseline response 0 %, Hill slope 1.828, Maximum measured 11.314 %, Maximum response 100 %, Minimum measured -7.525 %, R squared 0.394) and over 50 µM in the assay with dengue virus type 2 (Dengue virus, Vero C1008, Baseline response 0 %, Hill slope -1.93, Maximum measured 263.734 %, Maximum response 225.04 %, Minimum measured 80.528 %, R squared 0.789).
`O=C(Nc1ccc2c(c1)CNC2)c1cc(Cl)cc2cc[nH]c12`: the EC50 with Zika virus (Zika virus, Vero C1008) came out at 1 µM; in the assay on dengue virus type 2 (Dengue virus, Vero C1008) it was 2.21 µM. For the same compound, the EC90 is 1.91 µM in the assay with Zika virus (Zika virus, Vero C1008, Baseline response 0 %, EC90 CI (lower) 0.797 uM, EC90 CI (upper) 4.564 uM, Hill slope 3.408, Maximum measured 129.449 %, Maximum response 100 %, Minimum measured 8.447 %, R squared 0.85) and over 3.12 µM in the assay with dengue virus type 2 (Dengue virus, Vero C1008, Baseline response 0 %, Hill slope -2.776, Maximum measured 94.432 %, Maximum response 100 %, Minimum measured 26.957 %, R squared 0.875).
Take `Cc1cccc(-c2nc3c(C(=O)Nc4ccc5c(c4)CNC5)cc(Cl)cc3[nH]2)c1O`: the EC50 is over 50 µM with Zika virus (Zika virus, Vero C1008); 46.9 µM in the assay with dengue virus type 2 (Dengue virus, Vero C1008); over 50 µM in the assay with dengue virus type 2 (vero c1008). Further, the EC90 in the assay on Zika virus (Zika virus, Vero C1008, Maximum measured 4.83 %, Minimum measured -9.413 %) was over 50 µM; with Zika virus (Zika virus, Vero C1008, Baseline response 0 %, Hill slope 1.997, Maximum measured 9.723 %, Maximum response 100 %, Minimum measured -5.385 %, R squared 0.475), over 50 µM; with dengue virus type 2 (Dengue virus, Vero C1008, Maximum measured 146.036 %, Minimum measured 86.561 %), over 50 µM; with dengue virus type 2 (Dengue virus, Vero C1008, Baseline response 0 %, Hill slope -5.285, Maximum measured 123.385 %, Maximum response 100 %, Minimum measured 41.68 %, R squared 0.576) it was over 50 µM.
Take `O=C(Nc1ccc2c(c1)CNC2)c1cc(F)cc(-c2cnc(C3CC3)s2)c1`: the EC50 in the assay on Zika virus (Zika virus, Vero C1008) stood at 5.37 µM; with dengue virus type 2 (Dengue virus, Vero C1008) it was 11.6 µM. Also, the EC90 is over 6.25 µM with Zika virus (Zika virus, Vero C1008, Baseline response 0 %, Hill slope 4.772, Maximum measured 67.326 %, Maximum response 100 %, Minimum measured 1.512 %, R squared 0.988) and over 12.5 µM with dengue virus type 2 (Dengue virus, Vero C1008, Baseline response 0 %, Hill slope -1.802, Maximum measured 130.062 %, Maximum response 100 %, Minimum measured 44.88 %, R squared 0.382).
In the case of `CC(C)NC(=O)[C@H](Nc1ccc2c(c1)CNC2)c1cc(Cl)cc2[nH]c(-c3ccccc3)nc12`, the EC90 in the assay with Zika virus (Baseline response 0 %, EC90 CI (lower) 1.625 uM, EC90 CI (upper) 3.959 uM, Hill slope 3.776, Maximum measured 116.485 %, Maximum response 100 %, Minimum measured 3.087 %, R squared 0.948) was 2.54 µM; in the assay with Zika virus (Zika virus, Vero C1008, Maximum measured -0.317 %, Minimum measured -11.958 %) it was over 50 µM; with Zika virus (Zika virus, Vero C1008, Baseline response 0 %, Hill slope 1.53, Maximum measured 31.705 %, Maximum response 100 %, Minimum measured 3.074 %, R squared 0.825), over 3.12 µM; in the assay with dengue virus type 2 (Baseline response 0 %, Hill slope -0.821, Maximum measured 139.415 %, Maximum response 100 %, Minimum measured 43.862 %, R squared 0.144), over 50 µM; with dengue virus type 2 (Baseline response 0 %, Hill slope -1.532, Maximum measured 181.616 %, Maximum response 100 %, Minimum measured 48.773 %, R squared 0.025), over 50 µM; in the assay with dengue virus type 2 (Baseline response 0 %, Hill slope -1.75, Maximum measured 104.337 %, Maximum response 100 %, Minimum measured 20.383 %, R squared 0.733) it was over 12.5 µM. For the same compound, the EC50 in the assay on dengue virus type 2 (vero c1008) was 5.05 µM and > 50 µM.
For `O=C(Nc1cc2c(cc1Br)CNC2)c1cc(Cl)cc2[nH]ncc12`, the EC50 with Zika virus (Zika virus, Vero C1008) is 1.53 µM; in the assay on dengue virus type 2 (Dengue virus, Vero C1008), over 12.5 µM. Further, the EC90 with Zika virus (Zika virus, Vero C1008, Baseline response 0 %, EC90 CI (lower) 0.641 uM, EC90 CI (upper) 7.527 uM, Hill slope 6.115, Maximum measured 127.201 %, Maximum response 100 %, Minimum measured 6.803 %, R squared 0.89) was 2.2 µM; in the assay with dengue virus type 2 (Dengue virus, Vero C1008, Baseline response 0 %, Hill slope -0.294, Maximum measured 95.105 %, Maximum response 100 %, Minimum measured 44.86 %, R squared 0.086), over 12.5 µM.
For the compound `NCc1csc2cc(C(=O)Nc3ccc4c(c3)CNC4)ccc12`, the EC50 in the assay with Zika virus (Zika virus, Vero C1008) is over 50 µM; in the assay on dengue virus type 2 (Dengue virus, Vero C1008) it was over 50 µM. Besides, the EC90 was over 50 µM with Zika virus (Zika virus, Vero C1008, Baseline response 0 %, Hill slope 0.999, Maximum measured 5.799 %, Maximum response 100 %, Minimum measured -1.302 %, R squared 0.306) and over 50 µM in the assay on dengue virus type 2 (Dengue virus, Vero C1008, Maximum measured 124.572 %, Minimum measured 93.265 %).
`O=C1Nc2ccc(C(=O)Nc3ccc4c(c3)CNC4)cc2C1=O`: the EC50 is over 50 µM with Zika virus (Zika virus, Vero C1008) and over 50 µM in the assay with dengue virus type 2 (Dengue virus, Vero C1008). The EC90 was over 50 µM in the assay with Zika virus (Zika virus, Vero C1008, Baseline response 0 %, Hill slope 1.301, Maximum measured 24.355 %, Maximum response 100 %, Minimum measured -0.531 %, R squared 0.91) and over 50 µM in the assay on dengue virus type 2 (Dengue virus, Vero C1008, Maximum measured 138.129 %, Minimum measured 92.792 %).
`O=C(Nc1ccc2c(c1)CNC2)c1cc(Br)cc2c1nc1n2CCCC1`: the EC50 with Zika virus (Zika virus, Vero C1008) is over 50 µM; with dengue virus type 2 (Dengue virus, Vero C1008), over 50 µM. Also, the EC90 with Zika virus (Zika virus, Vero C1008, Maximum measured -3.355 %, Minimum measured -6.068 %) was over 50 µM; in the assay on dengue virus type 2 (Dengue virus, Vero C1008, Maximum measured 143.517 %, Minimum measured 80.126 %) it was over 50 µM.
Regarding `CCCNC(=O)[C@H](Nc1ccc2c(c1)CNC2)c1cc(Cl)cc2[nH]ncc12`, the EC50 was 6.6 µM in the assay on Zika virus (Zika virus, Vero C1008) and over 50 µM with dengue virus type 2 (Dengue virus, Vero C1008). The EC90 in the assay with Zika virus (Zika virus, Vero C1008, Baseline response 0 %, EC90 CI (lower) 8.551 uM, EC90 CI (upper) 22.021 uM, Hill slope 3.004, Maximum measured 121.473 %, Maximum response 100 %, Minimum measured -0.697 %, R squared 0.949) is 13.7 µM; in the assay with dengue virus type 2 (Dengue virus, Vero C1008, Maximum measured 131.319 %, Minimum measured 89.09 %), over 50 µM.
`O=C(O)Cc1c[nH]c2cc(-c3cc(Cl)cc(NC(=O)OCc4ccccc4)c3)ccc12`: the EC50 in the assay on Zika virus (Zika virus, Vero C1008) was over 50 µM; in the assay on dengue virus type 2 (Dengue virus, Vero C1008), 28.1 µM. For the same compound, the EC90 with Zika virus (Zika virus, Vero C1008, Baseline response 0 %, Hill slope 0.295, Maximum measured 15.391 %, Maximum response 100 %, Minimum measured 1.73 %, R squared 0.19) is over 50 µM; in the assay on dengue virus type 2 (Dengue virus, Vero C1008, Baseline response 0 %, Hill slope -3.369, Maximum measured 96.537 %, Maximum response 100 %, Minimum measured 12.115 %, R squared 0.802) it was over 50 µM.
